In patent US20250213603A1, “PHARMACEUTICAL COMPOSITION FOR TREATING CANCER” (SAGA UNIVERSITY, priority 2021, published 2025):

Columns and labels:
[1] = system: BV173 cells (leukemia cells); test: Ventricular invasion mouse model (leukemic invasion of the central nervous system); format: in vivo, BRJ mice; conditions: HP-β-CyD 30 mg/kg
Protocol: Here, the effect of HP-β-CyD and FA-HP-β-CyD on leukemic central nervous system invasion was test by constructing a mouse model.
BRJ mice (female) were anesthetized (intraperitoneal administration (IP) of 100 μL of a triple anesthetic of medetomidine hydrochloride (0.75 mg/kg), mitazolam (4 mg/kg), and butorphanol tartrate (5 mg/kg)), and intrathecal transplantation was carried out, through the right coronal suture at a point 1 mm to the right of the center line defined by the sagittal suture, with a polyethylene stop tube-equipped microsyringe designed to inject BV173 cells (leukemia cells) precisely to a depth of 3 mm using a Hamilton syringe LT type needle tip style pst-3 and 25 gauge.
The FA-HP-β-CyD synthesized in Example 1 was used in this example.
The doses were set at 30 mg/kg for HP-β-CyD and 3 mg/kg for FA-HP-β-CyD by referring to the dose of HP-β-CyD for a mouse model of the hereditary lipid storage disease Niemann-Pick disease type C (NPC) (Int. J. Mol. Sci. 2021, 22, 452. https://doi.org/10.3390/ijms22010452).
(§1) Significant difference was determined as follows. That is, the data were analyzed using a two-sided Student's t-test without a comparison table. A value of P<0.05 was considered to indicate a significant difference.

A549 = test: Proliferation inhibitory action on low folate receptor-expressing cells (MTT assay); format: cell-based, human; conditions: A549, 2.5-10 mM, 72 hours (FIG. 3)
Protocol: The proliferation inhibitory action on A549, a low folate receptor-expressing cell, was evaluated as follows.
A human non-small cell lung cancer cell line (A549) was used in this example. The FA-HP-β-CyD synthesized in Example 1 was used.
For cell proliferation, 2×10^4 cells of the […] were seeded with 100 μL DMEM medium (Sigma-Aldrich, USA) per well to a flatbottom 96-well plate (Greiner Labortechnik, Hamburg, Germany), and incubation for 72 hours was carried out with exposure to HP-β-CyD and FA-HP-β-CyD at different concentrations (0 mM (control: CT), 2.5 mM, 5 mM, 7.5 mM, and 10 mM). Evaluation was then carried out using a dimethyl-thiazole-diphenyl-tetrazolium (MTT) assay (Nacalai Tesque, Japan).

KBM5-STI = test: Cell proliferation inhibition, modified MTT assay (Cell Counting Kit-8); format: cell-based; conditions: incubation for 72 hours, average±SD of 3 independent experiments
Protocol: (§2) The proliferation inhibitory action in leukemia cell lines was evaluated using a modified dimethyl-thiazole-diphenyl-tetrazolium (MTT) assay as follows.
(§3) The hepatocyte line and leukemia cell lines (K562, BV173, Ba/F3 p190, Ba/F3 p210, MYL-R, K562-IMR, and KBM5-STI) were used in this example. The FA-HP-β-CyD synthesized in Example 1 was used.
(§4) The cell viability was evaluated using the trypan blue dye exclusion method. Cell proliferation was evaluated using a Cell Counting Kit-8 (Dojindo, Japan), which is an MTT assay. 2×10^4 of each cell was seeded with 100 μL RPMI1640 medium (Sigma-Aldrich, USA) per well to a flatbottom 96-well plate (Greiner Labortechnik, Hamburg, Germany), and incubation for 72 hours was carried out with exposure to HP-β-CyD and FA-HP-β-CyD at different concentrations (0 mM (control: CT), 0.05 mM, 0.1 mM, 0.25 mM, 0.5 mM, and 1 mM).

K562-IMR = test: as above; format: cell-based; conditions: incubation for 72 hours, average±SD of 3 independent experiments
Protocol: as §2, §3, §4

MYL-R = test: as above; format: cell-based; conditions: incubation for 72 hours, average±SD of 3 independent experiments
Protocol: as §2, §3, §4

Ba/F3 P210 = test: as above; format: cell-based; conditions: Ba/F3 P210, incubation for 72 hours, average±SD of 3 independent experiments
Protocol: as §2, §3, §4

hepatocyte = test: as above; format: cell-based; conditions: hepatocyte line, incubation for 72 hours, average±SD of 3 independent experiments
Protocol: as §2, §3, §4

Ba/F3 P190 = test: as above; format: cell-based; conditions: Ba/F3 P190, incubation for 72 hours, average±SD of 3 independent experiments
Protocol: as §2, §3, §4

BV173 [2] = test: as above; format: cell-based; conditions: BV173, incubation for 72 hours, average±SD of 3 independent experiments
Protocol: as §2, §3, §4

K562 [3] = test: as above; format: cell-based; conditions: K562, incubation for 72 hours, average±SD of 3 independent experiments
Protocol: as §2, §3, §4

BV173 [4] = test: Effect of autophagy inhibition on the cell proliferation inhibitory effect; format: cell-based; conditions: 5 mM FA-HP-β-CyD or 15 mM HP-β-CyD, chloroquine, bafilomycin A1 or LY294002 (FIG. 8)
Protocol: (§5) The effect of autophagy inhibition on the cell proliferation inhibitory effect was evaluated as follows.
(§6) Leukemia cell lines (K562 and BV173) were used in this example. The FA-HP-β-CyD synthesized in Example 1 was used.
(§7) 2×10^5 of each cell with 100 μL RPMI1640 medium (Sigma-Aldrich, USA) was seeded per well to a flatbottom 96-well plate (Greiner Labortechnik, Hamburg, Germany), and treatment was carried out for 2 hours at 37° C. with 5 mM FA-HP-β-CyD and 15 mM HP-β-CyD. Pretreatment was then carried out for 24 hours with the autophagy inhibitors chloroquine (20 μM) (FUJIFILM Wako Pure Chemical Corporation), bafilomycin A1 (1 nM) (Funakoshi), or LY294002 (50 μM) (FUJIFILM Wako Pure Chemical Corporation). Cell proliferation was then evaluated using a Cell Counting Kit-8 (Dojindo, Japan), which is a modified dimethyl-thiazole-diphenyl-tetrazolium (MTT) assay.
(§8) Here, the “CT” in FIG. 8 was evaluated as follows. Thus, 2×10^5 of each cell with 100 μL RPMI1640 medium was seeded per well to a flatbottom 96-well plate and culture was carried out for 2 hours+24 hours as in the exposure groups, but without exposure to the agent or autophagy inhibitor, and this was used as the CT. This CT was compared with the exposure groups.
as §1

K562 [5] = test: as above; format: cell-based; conditions: 5 mM FA-HP-β-CyD or 15 mM HP-β-CyD, chloroquine, bafilomycin A1 or LY294002 (FIG. 8)
Protocol: as §5, §6, §7, §8, §1

BV173 [6] = test: Cellular uptake of TRITC-labelled CyD, confocal microscopy; format: cell-based; conditions: confocal microscopy (FIG. 6)
Protocol: The cellular uptake of FA-HP-β-CyD was evaluated as follows.
A leukemia cell line (BV173) was used in this example. The FA-HP-β-CyD synthesized in Example 1 was used.
10 mg HP-β-CyD or FA-HP-β-CyD and 1 mg of TRITC were dissolved in 400 μL of dimethyl sulfoxide (DMSO) with stirring for 24 hours and the solution was then gradually poured into acetone. A precipitate was obtained and was washed with water. This was freeze-dried to prepare TRITC-HP-β-CyD and TRITC-FA-HP-β-CyD.
The cells were then cultured at a cell density of 4×10e5 per well on a 6-well plate and were incubated with […], TRITC-HP-β-CyD, FA-HP-β-CyD, or HP-βCyD at different concentrations. A Zeiss LSM880 confocal microscope was used to observe the cells. Imaris (Zeiss) fluorescent image analysis software was used for analysis.
The Control refers to incubation at the same time as the other exposure groups, but without exposure to an agent. Cell localization was stained by DAPI and the cell membrane was stained with PlasMen Bright Green, and the cellular uptake of TRITC-FA-HP-β-CyD was evaluated using confocal microscopy.

2-hydroxypropyl-β-cyclodextrin [HP-β-CyD, reference compound]
survival in two-time administration model compared with one-time administration model ([1]; FIG. 14 compared with FIG. 13, FA-HP-β-CyD 3 mg/kg): an extension in survival was not observed | P versus the vehicle group (survival) ([1]; administered two times, first and second week, FA-HP-β-CyD 3 mg/kg (FIG. 14)): 0.182 | P versus the vehicle group (survival) ([1]; single administration in the second week, FA-HP-β-CyD 3 mg/kg (FIG. 13)): 0.0746 | cytotoxic / antitumor activity on A549 low folate receptor-expressing cells (A549): strong cytotoxic activity | IC50 (KBM5-STI): 6.64 ± 0.18 mM | IC50 (K562-IMR): 3.51 ± 0.12 mM | IC50 (MYL-R): 8.17 ± 0.15 mM | IC50 (Ba/F3 P210): 9.21 ± 0.054 mM | IC50 (hepatocyte): 12.9 ± 2.73 mM | IC50 (Ba/F3 P190): 8.04 ± 0.71 mM | IC50 (BV173 [2]): 3.46 ± 0.33 mM | IC50 (K562 [3]): 5.65 ± 0.96 mM | cell proliferation inhibitory capability on addition of an autophagy inhibitor (BV173 [4]): such an effect is absent | cell proliferation inhibitory capability on addition of an autophagy inhibitor (K562 [5]): such an effect is absent | cellular uptake (BV173 [6]): almost no cellular intake
